According to the supplement of paper PMC11208160:

Test: recombinant UMI read abundance after kanamycin selection (control-corrected) (log10(CPM+1)); higher = more efficient recombination; extreme values may be limits of the assay; sequences stand for … in AGTGCAGAGAAAATCGGCCAGTTTTCTCTGCCTGCAGTCCGCATGCCGTGGGACCCCTTGGGTTCTAACCTGTTGCCTAGATTTATGCAGCGGACTGCCTTTCTCCCAAAGTGATAAACCGG…AGGTTGGTTTCACT; site = the 11-nt donor
Outline: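 After plating on IPTG (0.07 mM) plus kanamycin, or unselected, in two replicates, recombinant UMIs were PCR-amplified across the donor–target junction and sequenced. The cells were Escherichia coli co-electroporated with a UMI-tagged donor and donor-binding-loop pair library and a target plasmid with a fixed target and T7-inducible IS621 bridge recombinase. Values are log10(CPM+1), with CPM averaged over replicates and scaled by control-derived factors.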
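Also: IS621 bridge recombinase in Escherichia coli cells against a fixed T5 target plasmid.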

| Sequence | recombinant UMI read abundance (log10) |
| --- | --- |
| CCTAATGCATGGACCGGTTTTCCCGGTAATCCGTATTTGGC (site CCTAATGCTGC) | 0 |
| CCTAATGCATGGACCGGTTTTCCCGGTAATCCGTATTTGGC (site CCTAATTCTGC) | 0 |
| CCTACGGCATGGACCGGTTTTCCCGGTAATCCGTATTTGCG (site CCTACGGCTCG) | 0.00682 |
| CCTATGGCATGGACCGGTTTTCCCGGTAATCCGTATTTGGT (site CCTATGGCTAC) | 0.012 |
| CCTATTTCATGGACCGGTTTTCCCGGTAATCCGTATTTGAA (site CCTATTTCTTT) | 0 |
| CCTCAGCCATGGACCGGTTTTCCCGGTAATCCGTATTTGGC (site CCTCAGCCTGC) | 0 |
| CCTCCTTCATGGACCGGTTTTCCCGGTAATCCGTATTTGCT (site CCTCCTTCTAG) | 0 |
| CCTCGTACATGGACCGGTTTTCCCGGTAATCCGTATTTGGT (site CCTCGTACTAC) | 0.0115 |
| CCTGAACCATGGACCGGTTTTCCCGGTAATCCGTATTTGGT (site CCTGAACCTAC) | 0.00702 |
| CCTGATACATGGACCGGTTTTCCCGGTAATCCGTATTTGTA (site CCTGATACTTA) | 0.326 |
| CCTGCCCCATGGACCGGTTTTCCCGGTAATCCGTATTTGGC (site CCTGCCCCTGC) | 0 |
| CCTGGCTCATGGACCGGTTTTCCCGGTAATCCGTATTTGCA (site CCTGGCTCTTG) | 0 |
| CCTGTAACATGGACCGGTTTTCCCGGTAATCCGTATTTGCA (site CCTGTAACTTG) | 0 |
| CCTGTACCATGGACCGGTTTTCCCGGTAATCCGTATTTGCG (site CCTGTACCTCG) | 0.0076 |
| CCTTAGCCATGGACCGGTTTTCCCGGTAATCCGTATTTGAA (site CCTTAGCCTTT) | 0 |
| CCTTATACATGGACCGGTTTTCCCGGTAATCCGTATTTGAG (site CCTTATACTCT) | 0.0212 |
| CCTTCTCCATGGACCGGTTTTCCCGGTAATCCGTATTTGTG (site CCTTCTCCTCA) | 0.0156 |
| CCTTCTTCATGGACCGGTTTTCCCGGTAATCCGTATTTGGG (site CCTTCTTCTCC) | 0.00401 |
| CCTTCTTCATGGACCGGTTTTCCCGGTAATCCGTATTTGTC (site CCTTCTTCTGA) | 0 |
| CCTTTAGCATGGACCGGTTTTCCCGGTAATCCGTATTTGTG (site CCATTAGCTCA) | 0.00718 |
| CCTTTAGCATGGACCGGTTTTCCCGGTAATCCGTATTTGTG (site CCCTTAGCTCA) | 0.00968 |
| CCTTTAGCATGGACCGGTTTTCCCGGTAATCCGTATTTGTG (site CCGTTAGCTCA) | 0.00885 |
| CCTTTAGCATGGACCGGTTTTCCCGGTAATCCGTATTTGTG (site CCTTTAGCTCA) | 0.0063 |
| CCTTTGCCATGGACCGGTTTTCCCGGTAATCCGTATTTGGC (site CCTTTGCCTGC) | 0 |
| CCTTTGTCATGGACCGGTTTTCCCGGTAATCCGTATTTGGA (site CCTTTGTCTTC) | 0.00278 |

| Sequence | recombinant UMI read abundance (log10) |
| --- | --- |
| CGAAAAGCATGGACCGGTTTTCCCGGTAATCCGTATTTGCA (site CGAAAAGCTTG) | 0 |
| CGAAAGACATGGACCGGTTTTCCCGGTAATCCGTATTTGGG (site CGAAAGACTCC) | 0.621 |
| CGAAAGACATGGACCGGTTTTCCCGGTAATCCGTATTTGGT (site CGAAAGACTAC) | 2 |
| CGAAAGGCATGGACCGGTTTTCCCGGTAATCCGTATTTGCT (site AGAAAGGCTAG) | 0 |
| CGAAAGGCATGGACCGGTTTTCCCGGTAATCCGTATTTGCT (site CGAAAGGCTAG) | 2.39 |
| CGAAAGGCATGGACCGGTTTTCCCGGTAATCCGTATTTGCT (site GGAAAGGCTAG) | 0 |
| CGAAAGGCATGGACCGGTTTTCCCGGTAATCCGTATTTGCT (site TGAAAGGCTAG) | 0 |
| CGAACCACATGGACCGGTTTTCCCGGTAATCCGTATTTGTG (site CGAACCACTCA) | 0.523 |
| CGAACGACATGGACCGGTTTTCCCGGTAATCCGTATTTGTT (site CGAACGACTAA) | 1.08 |
| CGAACGACATGGACCGGTTTTCCCGGTAATCCGTATTTGTT (site CGACCGACTAA) | 0.00483 |
| CGAACGACATGGACCGGTTTTCCCGGTAATCCGTATTTGTT (site CGAGCGACTAA) | 0.0306 |
| CGAACGACATGGACCGGTTTTCCCGGTAATCCGTATTTGTT (site CGATCGACTAA) | 0.00769 |
| CGAACTCCATGGACCGGTTTTCCCGGTAATCCGTATTTGGG (site CGAACTCCTCC) | 0.143 |
| CGAAGACCATGGACCGGTTTTCCCGGTAATCCGTATTTGGG (site CGAAGACCTCC) | 0 |
| CGAAGACCATGGACCGGTTTTCCCGGTAATCCGTATTTGGG (site CGACGACCTCC) | 0.0149 |
| CGAAGACCATGGACCGGTTTTCCCGGTAATCCGTATTTGGG (site CGAGGACCTCC) | 0.0232 |
| CGAAGACCATGGACCGGTTTTCCCGGTAATCCGTATTTGGG (site CGATGACCTCC) | 0.006 |
| CGAAGTCCATGGACCGGTTTTCCCGGTAATCCGTATTTGCG (site CGAAGTCCTCG) | 1.21 |
| CGAATAACATGGACCGGTTTTCCCGGTAATCCGTATTTGCC (site CGAATAACTGG) | 0.484 |
| CGACAATCATGGACCGGTTTTCCCGGTAATCCGTATTTGAC (site CGACAATCTGT) | 2.86 |
| CGACCAACATGGACCGGTTTTCCCGGTAATCCGTATTTGAT (site GAGGGGCCTTC) | 0.006 |
| CGACCATCATGGACCGGTTTTCCCGGTAATCCGTATTTGGT (site CGACCATCTAC) | 0.825 |
| CGACCATCATGGACCGGTTTTCCCGGTAATCCGTATTTGGT (site CGATCATCTAG) | 0 |
| CGACCCTCATGGACCGGTTTTCCCGGTAATCCGTATTTGCT (site CGACCCTCTAG) | 3.63 |
| CGACCCTCATGGACCGGTTTTCCCGGTAATCCGTATTTGCT (site CGATCATCTAG) | 0 |

| Sequence | recombinant UMI read abundance (log10) |
| --- | --- |
| CGACGACCATGGACCGGTTTTCCCGGTAATCCGTATTTGAC (site CGACGACCTGT) | 0 |
| CGACGGTCATGGACCGGTTTTCCCGGTAATCCGTATTTGTC (site CGACGGTCTGA) | 2.77 |
| CGACGTACATGGACCGGTTTTCCCGGTAATCCGTATTTGCT (site CGACGTACTAG) | 2.45 |
| CGACGTACATGGACCGGTTTTCCCGGTAATCCGTATTTGCT (site CGCCGTACTAG) | 0.0167 |
| CGACGTACATGGACCGGTTTTCCCGGTAATCCGTATTTGCT (site CGGCGTACTAG) | 0.688 |
| CGACGTACATGGACCGGTTTTCCCGGTAATCCGTATTTGCT (site CGTCGTACTAG) | 0.764 |
| CGACTTGCATGGACCGGTTTTCCCGGTAATCCGTATTTGAT (site CGACTTGCTAT) | 2.39 |
| CGAGAGGCATGGACCGGTTTTCCCGGTAATCCGTATTTGGG (site CGAGAGGCTCC) | 0.928 |
| CGAGCATCATGGACCGGTTTTCCCGGTAATCCGTATTTGCT (site CGAACATCTAG) | 0 |
| CGAGCATCATGGACCGGTTTTCCCGGTAATCCGTATTTGCT (site CGACCATCTAG) | 0 |
| CGAGCATCATGGACCGGTTTTCCCGGTAATCCGTATTTGCT (site CGAGCATCTAG) | 1.79 |
| CGAGCATCATGGACCGGTTTTCCCGGTAATCCGTATTTGCT (site CGATCATCTAG) | 0 |
| CGAGGACCATGGACCGGTTTTCCCGGTAATCCGTATTTGCG (site CGAGGACCTCA) | 0.00306 |
| CGAGGACCATGGACCGGTTTTCCCGGTAATCCGTATTTGCG (site CGAGGACCTCC) | 0.00697 |
| CGAGGACCATGGACCGGTTTTCCCGGTAATCCGTATTTGCG (site CGAGGACCTCG) | 0 |
| CGAGGACCATGGACCGGTTTTCCCGGTAATCCGTATTTGCG (site CGAGGACCTCT) | 0.00945 |
| CGAGGACCATGGACCGGTTTTCCCGGTAATCCGTATTTGGA (site CGAGGACCTAC) | 0 |
| CGAGGACCATGGACCGGTTTTCCCGGTAATCCGTATTTGGA (site CGAGGACCTCC) | 0.0127 |
| CGAGGACCATGGACCGGTTTTCCCGGTAATCCGTATTTGGA (site CGAGGACCTGC) | 0 |
| CGAGGACCATGGACCGGTTTTCCCGGTAATCCGTATTTGGA (site CGAGGACCTTC) | 0.0145 |
| CGAGGATCATGGACCGGTTTTCCCGGTAATCCGTATTTGGG (site CGAGGAACTCC) | 0.0163 |
| CGAGGATCATGGACCGGTTTTCCCGGTAATCCGTATTTGGG (site CGAGGACCTCC) | 0.00347 |
| CGAGGATCATGGACCGGTTTTCCCGGTAATCCGTATTTGGG (site CGAGGAGCTCC) | 0 |
| CGAGGATCATGGACCGGTTTTCCCGGTAATCCGTATTTGGG (site CGAGGATCTCC) | 1.15 |
| CGAGTATCATGGACCGGTTTTCCCGGTAATCCGTATTTGAT (site CGAGTATCTAT) | 2.89 |
